Measurements as given in patent US10583092B2, “Therapeutic nanoparticles comprising a protonatable nitrogen therapeutic agent and methods of making and using same” (Pfizer Inc., priority 2014, dated 2020).

Experiment: Solubility of dasatinib in solvents, quantified using HPLC
Format: physicochemical
Details: benzyl alcohol doped with oleic acid versus benzyl alcohol
Source text: The solubility of dasatinib in benzyl alcohol, ethyl acetate, and mixtures of oleic acid and benzyl alcohol were quantified using HPLC.

## Cc1nc(Nc2ncc(C(=O)Nc3c(C)cccc3Cl)s2)cc(N2CCN(CCO)CC2)n1 [dasatinib]
  improvement of solubility: 2-3 fold
